Assay results published in US20220168322A1, “NOVEL STAT3 INHIBITORS IDENTIFIED BY STRUCTURE-BASED VIRTUAL SCREENING INCORPORATING SH2 DOMAIN FLEXIBILITY” (Board of Regents, The University of Texas System, priority 2018, published 2022).
Where two headings read alike, the source gives them in different places.

How the values were obtained:
G-CSF-stimulated pSTAT3 = assay: Inhibition of G-CSF-stimulated pSTAT3 in Kasumi-1 cells (Luminex, pSTAT3/GAPDH); format: cell-based; settings: for activity at 10 µM: Kasumi 1, read-out: % of Control Stimulated pSTAT3; for activity at 10 µM / % of Control Stimulated pSTAT3: single concentration of 10 μM, G-CSF 100 ng/ml, pSTAT3/GAPDH relative to DMSO treated cells; for inhibition at 10 µM: Kasumi-1 cells, read-out: inhibition of G-CSF-induced pY-STAT3
Method: […] Total protein was assayed for pSTAT3 and GAPDH levels by Luminex. GAPDH-normalized pSTAT3 values were divided by the same for untreated cells and expressed as percentage. These values were plotted as a function of Log [M] compound, and IC50 calculated using GraphPad. Data from representative experiments from at least two repeats is shown.
Luminex bead-based assay. Luminex bead-based assays were used to determine levels of pSTAT3, pSTAT1, pSTAT5, and GAPDH, as described (Bharadwaj et al., 2015). […]

STAT3 (aa 127-722) = biological target: T1, STAT3 (aa 127-722) (Homo sapiens, UniProt P40763); assay: SPR assay of STAT3 binding to immobilized EGFR pY1068 phosphododecapeptide; settings: for inhibition at 10 µM / inhibition at 100 µM / inhibition of STAT3 binding to EGFR pY-peptide: SPR; for inhibition at 10 µM / inhibition at 100 µM: read-out: inhibition of STAT3 binding to EGFR pY-peptide; for % of max binding at 10 μm: pEGFRp-STAT3 binding (SPR) at pH 8, compound 10 μm; for % of max binding at 100 μm: pEGFRp-STAT3 binding (SPR) at pH 8, compound 100 μm; for inhibition at 100 µM / inhibition of STAT3 binding to EGFR pY-peptide: 100 μM
T1 construct: STAT3 (aa 127-722) at a concentration of 200 nM
T1 sequence (P40763 127-722 isoform P40763-3 limits assumed, species assumed): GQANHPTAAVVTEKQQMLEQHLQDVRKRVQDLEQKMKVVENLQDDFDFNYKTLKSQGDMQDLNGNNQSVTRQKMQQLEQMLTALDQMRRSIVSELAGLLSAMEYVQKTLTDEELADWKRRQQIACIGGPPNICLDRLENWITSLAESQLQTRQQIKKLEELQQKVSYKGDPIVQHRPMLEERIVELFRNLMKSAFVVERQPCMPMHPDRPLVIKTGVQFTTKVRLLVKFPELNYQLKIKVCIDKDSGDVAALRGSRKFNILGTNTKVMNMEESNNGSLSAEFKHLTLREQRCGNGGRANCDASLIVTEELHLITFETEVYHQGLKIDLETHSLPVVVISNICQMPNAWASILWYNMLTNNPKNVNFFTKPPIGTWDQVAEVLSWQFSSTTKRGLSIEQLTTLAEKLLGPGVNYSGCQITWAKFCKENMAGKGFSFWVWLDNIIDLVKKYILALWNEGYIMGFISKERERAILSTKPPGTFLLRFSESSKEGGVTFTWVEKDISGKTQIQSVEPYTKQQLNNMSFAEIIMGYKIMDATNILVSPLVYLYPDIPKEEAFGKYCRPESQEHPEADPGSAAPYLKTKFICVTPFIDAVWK
Method: Surface plasmon resonance (SPR) assay of STAT3 binding pY-peptide. STAT3 (aa 127-722) at a concentration of 200 nM in 20 mM Tris buffer (pH 8) was pre-incubated without or with compounds prior to injection onto an SA chip immobilized with phosphorylated and control non-phosphorylated biotinylated EGFR derived dodecapeptides based on sequence surrounding Y1068 (Shao et al., 2004), on a Biacore 3000 biosensor (Biacore inc., Piscataway N.J.) and analyzed as described (Bharadwaj et al., 2016).
Surface Plasmon Resonance (SPR) was performed on the 24 compounds to determine their ability to block binding of purified STAT3 to an immobilized phosphododecapeptide based on EGFR Y1068 (EGFR pY-peptide), as described (Xu et al., 2009).

MDA-MB-231 cells = assay: Anchorage-independent and dependent cell growth (MTT), MDA-MB-231; format: cell-based; settings: NA = No Activity
Method: MDA-MB-231 cells were cultured for 48 hrs in complete DMEM with 10% FBS±compound (0/0.1/0.3/1/3/10/100 μM) in cell-culture-treated plates and viable cells quantitated using MTT. Relative % viability (viability after any treatment÷viability of untreated cells×100) was plotted as a function of Log [M] compound, and IC50 values calculated using GraphPad.
MDA-MB-231 cells were cultured for 72 hrs in complete DMEM with 10% FBS±compound (0/0.1/0.3/1/3/10/100 μM) in cell-culture-treated ultra-low attachment 96-well plates and viable cells quantitated using MTT. Relative % viability (viability after any treatment÷viability of untreated cells×100) was plotted as a function of Log [M] compound, and IC50 values calculated using GraphPad.
(§1) Anchorage-independent and dependent cell growth. Cells were cultured in triplicates in complete DMEM±drug, in ultra-low attachment 96 well plates for 72 hrs or cell-culture treated plates for 48 hrs and viable cells were quantitated using MTT. Optical density (OD) was measured at 590 nm using a 96-well multi-scanner (Synergy H1 microplate reader, BioTek Inc, VT, USA). Relative % viability (viability after any treatment÷viability of untreated cells×100) was plotted along Y-axis. At least 2 replicates experiments were performed and were used for IC50 calculation using GraphPad software.

MDA-MB-468 cells = assay: Anchorage-independent and dependent cell growth (MTT), MDA-MB-468; format: cell-based; settings: NA = No Activity
Method: MDA-MB-468 cells were cultured for 48 hrs in complete DMEM with 10% FBS±compound (0/0.1/0.3/1/3/10/100 μM) in cell-culture-treated plates and viable cells quantitated using MTT. Relative % viability (viability after any treatment÷viability of untreated cells×100) was plotted as a function of Log [M] compound, and IC50 values calculated using GraphPad.
MDA-MB-468 cells were cultured for 72 hrs in complete DMEM with 10% FBS±compound (0/0.1/0.3/1/3/10/100 μM) in cell-culture-treated ultra-low attachment 96-well plates and viable cells quantitated using MTT. Relative % viability (viability after any treatment viability of untreated cells×100) was plotted as a function of Log [M] compound, and IC50 values calculated using GraphPad.
as §1

[1] = Kasumi1 cells, G-CSF induced pSTAT3/GAPDH by Luminex
[2] = Homo sapiens, MDA-MB-231, 72 h, anchorage independent, ultra-low attachment plates, 72 hrs, read-out: Growth AI IC50 231
[3] = Homo sapiens, MDA-MB-468, 48 h, anchorage dependent, cell-culture treated plates, 48 hrs, read-out: Growth AD IC50 468
[4] = Homo sapiens, MDA-MB-468, 72 h, anchorage independent, ultra-low attachment plates, 72 hrs, read-out: Growth AI IC50 468
[5] = anchorage dependent, cell-culture treated plates, 48 hrs, read-out: Growth AD IC50 468
[6] = Homo sapiens, MDA-MB-231, 48 h, anchorage dependent, cell-culture treated plates, 48 hrs, read-out: Growth AD IC50 231
[7] = anchorage dependent, cell-culture treated plates, 48 hrs, read-out: Growth AD IC50 231
[8] = anchorage dependent, cell-culture treated plates, 48 hrs
[9] = anchorage independent, ultra-low attachment plates, 72 hrs

SMILES | activity at 10 µM (G-CSF-stimulated pSTAT3; Homo sapiens, Kasumi1 cells) | inhibition at 10 µM (G-CSF-stimulated pSTAT3; Homo sapiens) | inhibition at 10 µM (STAT3 (aa 127-722)) | inhibition at 100 µM (STAT3 (aa 127-722)) | % of max binding at 10 μm (STAT3 (aa 127-722)) | % of max binding at 100 μm (STAT3 (aa 127-722)) | IC50 (MDA-MB-231 cells; [2]) | % of Control Stimulated pSTAT3 (G-CSF-stimulated pSTAT3; Kasumi1 cells) | further results
COc1ccc(/C=C/C(=O)c2cc(Br)ccc(=O)c2O)cc1 [SPEC-8, 5-bromo-2-hydroxy-3-[3-(4-methoxyphenyl)acryloyl]-2,4,6-cycloheptatrien-1-one] | 0% | 20 to 80% | 29 to 71% | 67 to 93% | 49.1% | 30.3% | 26.1 µM | – | IC50 (G-CSF-stimulated pSTAT3; [1]): 4.1 µM
COc1ccc(Br)cc1/C=C/C(=O)c1ccc(NC(C)=O)cc1 [SPEC-29, N-(4-[(E)-3-(5-bromo-2-methoxyphenyl)prop-2-enoyl)phenyl]acetamide] | 0% | 20 to 80% | 29 to 71% | 67 to 93% | 69.6% | 22.1% | 9.5 ± 4.1 µM | – | IC50 (G-CSF-stimulated pSTAT3; [1]): 2.7 µM; inhibition of STAT3 binding to EGFR pY-peptide (STAT3 (aa 127-722)): 78%; IC50 (MDA-MB-468 cells; [3]): 2.4 to 12.1 µM; IC50 (MDA-MB-468 cells; [4]): 1.8 to 11.1 µM; IC50 (MDA-MB-468 cells; [5]): 2.4 ± 2.5 µM; IC50 (MDA-MB-468 cells; anchorage independent, ultra-low attachment plates, 72 hrs, read-out: Growth AI IC50 468): 1.8 ± 1.6 µM; IC50 (MDA-MB-231 cells; [6]): 3 to 12.2 µM; IC50 (MDA-MB-231 cells; [7]): 3 ± 2.2 µM
O=C(O)COc1c(Br)cc(/C=C2\SC(=O)N(CC(=O)N3CCN(c4ccccc4)CC3)C2=O)cc1Br [SPEC-85, [2,6-dibromo-4-({2,4-dioxo-3-[2-oxo-2-(4-phenyl-1-piperazinyl)ethyl]-1,3-thiazolidin-5-ylidene}methyl)phenoxy]acetic acid] | 2% | 20 to 80% | 29 to 71% | – | 67.3% | 9.5% | – | – | IC50 (G-CSF-stimulated pSTAT3; Homo sapiens, Kasumi 1, Kasumi1 cells, G-CSF induced pSTAT3/GAPDH by Luminex): > 100 µM; G-CSF pSTAT3 IC50 (G-CSF-stimulated pSTAT3; [1]): almost no activity; inhibition of STAT3 binding to EGFR pY-peptide (STAT3 (aa 127-722)): 95%; Growth AD IC50 468 (MDA-MB-468 cells; [8]): no activity; Growth AI IC50 468 (MDA-MB-468 cells; [9]): no activity; Growth AD IC50 231 (MDA-MB-231 cells; [8]): no activity; Growth AI IC50 231 (MDA-MB-231 cells; [9]): no activity
CCOc1ccc(N(C(C)C(=O)Nc2cccc(Cl)c2C)S(C)(=O)=O)cc1 (centres unmarked) [SPEC-86] | – | – | – | – | 120.1% | 59.1% | – | 5% | –
CCn1c(CNc2ccc(Cl)cc2)nnc1SC(C)C(=O)Nc1ccc(C(C)=O)cc1 (centres unmarked) [SPEC-90] | – | – | – | – | 132.2% | 59.5% | – | 4% | –
CC(=O)Nc1nc(C)c(-c2csc(Nc3ccccc3)n2)s1 [SPEC-93, N-(2-aniline-4′-methyl-4,5′-bi-1,3-thiazol-2′-yl)acetamide] | 0% | 20 to 80% | 29 to 71% | 67 to 93% | 116.8% | 28.3% | 15.7 ± 1.3 µM | – | –
COc1cc(/C=C2/SC(=O)NC2=O)ccc1OCc1ccc(Cl)cc1Cl [SPEC-98] | 20% | 20 to 80% | 29 to 71% | 67 to 93% | 70.4% | 7.8% | – | – | IC50 (MDA-MB-468 cells; [3]): 25.6 to 65.2 µM; IC50 (MDA-MB-468 cells; [4]): 64.1 ± 3.1 µM; IC50 (MDA-MB-468 cells; [5]): 32.5 ± 3.7 µM; IC50 (MDA-MB-231 cells; [6]): 25.6 to 65.2 µM; IC50 (MDA-MB-231 cells; [7]): 25.6 ± 3.9 µM
COC(=O)c1ccc(N2C(=O)CC(SC(=NCCc3ccc(S(N)(=O)=O)cc3)Nc3ccccc3)C2=O)cc1 (centres unmarked) [SPEC-100] | – | – | – | – | 70.8% | 15.4% | – | 42% | –
CC(=O)c1ccc(NC(=O)C2C3CC/C=C\CCC32)cc1 (centres unmarked) [SPEC-102] | – | – | – | – | 73.7% | 21.4% | – | 38% | –
CC1(C)CC(=O)c2sc(NC(=O)CSc3nnc(SCC(=O)Nc4nc5c(s4)C(=O)CC(C)(C)C5)s3)nc2C1 [SPEC-103] | – | – | – | – | 76.0% | 10.4% | – | 46% | –
Cc1cc(NS(=O)(=O)c2ccc(NC(=O)COc3ccc(C(C)(C)c4ccccc4)cc3)cc2)nc(C)n1 [SPEC-106, N-(4-{[(2,6-dimethyl-4-pyrimidinyl)amino]sulfonyl}phenyl)-2-[4-(1-methyl-1-phenylethyl)phenoxy]acetamide] | 1% | 20 to 80% | 29 to 71% | 67 to 93% | 68.9% | 20.4% | 38.9 µM | – | IC50 (MDA-MB-468 cells; [3]): 25.6 to 65.2 µM; IC50 (MDA-MB-468 cells; [4]): 34.9 ± 1.3 µM; IC50 (MDA-MB-468 cells; [5]): 44.7 µM; IC50 (MDA-MB-231 cells; [6]): 25.6 to 65.2 µM; IC50 (MDA-MB-231 cells; [7]): 39 µM
NC(=O)CCN1CCN(CCOC2Cc3cc(Cl)ccc3Sc3ccccc32)CC1 (centres unmarked) [SPEC-109] | – | – | – | – | 97.1% | 82.3% | – | 1% | –
